According to US6825236B2, “Colchicine derivatives” (California Pacific Medical Center, priority 2003, dated 2004):

Tested on: HCT116
Test: Cell colony formation assay
Assay type: cell-based
Conditions: 72 hours with drug, colonies counted after 7 days
Description: This example provides directions for growing cells and testing compounds of the invention for their effect on the growth of the cells. All cells were purchased from DCTDC Tumor Repository, NCI, NIH.
Cell Colony Formation Assay
Four hundred cells (HCT 116, PC-3) or five hundred cells (VM46) were plated in 60 mm Petri dishes containing 2.7 ml of medium (modified McCoy's 5a medium) containing 10% fetal bovine serum and 100 units/ml penicillin and […] streptomycin. The cells were incubated in a CO2 incubator at 37° C. for 5 hours for attachment to the bottom of Petri dishes. Drugs were made fresh in medium at ten times the final concentration, and then 0.3 ml of this stock solution was added to the 2.7 ml of medium in the dish. The cells were then incubated with drugs for 72 hours at 37° C. At the end of the incubation the drug-containing media were decanted, the dishes were rinsed with 4 ml of Hank's Balance Salt Solution (HBSS), 5 ml of fresh medium was added, and the dishes were returned to the incubator for colony formation. The cell colonies were counted using colony counter after incubation for 7 days for HCT116 cells and PC-3 cells and 8 days for VM46 cells, respectively.
Values of ID50 (the drug concentration producing 50% inhibition of colony formation) may be determined for each tested compound. The directions described in this example may be used in other cells, such as DU-145.

SMILES | Survival (%) of HCT116 (100 nM) | Survival (%) of HCT116 (10 nM) | Survival (%) of HCT116 (1 nM)
CCC(=C(CC)c1ccc(OCC(=O)NC2CCc3cc(OC)c(OC)c(OC)c3-c3ccc(SC)c(=O)cc32)cc1)c1ccc(OCC(=O)NC2CCc3cc(OC)c(OC)c(OC)c3-c3ccc(SC)c(=O)cc32)cc1 (centres unmarked) [Compound 000828, Dimer of N-Deacetylthiocolchicine] | 93.81% | – | –
COc1cc2c(c(OC)c1OC)-c1ccc(SC)c(=O)cc1C(NC(=O)CSc1cc(C)c(Cl)cc1Cl)CC2 (centres unmarked) [Compound 000831] | 89.15% | – | –
COc1cc2c(c(OC)c1OC)-c1ccc(SC)c(=O)cc1C(NC(=O)CCc1cccnc1)CC2 (centres unmarked) [Compound 000901, N-Deacetyl-N-(3-pyridinepropionyl)thiocolchicine] | 0% | 61.60% | –
COc1cc2c(c(OC)c1OC)-c1ccc(SC)c(=O)cc1C(NC(=O)Cn1cc(C)c(=O)[nH]c1=O)CC2 (centres unmarked) [Compound 000905, N-Deacetyl-N-(thymine-1-acetyl)thiocolchicine] | 96.66% | – | –
COc1cc2c(c(OC)c1OC)-c1ccc(SC)c(=O)cc1C(NC(=O)c1ccc3c(c1)C(=O)c1ccccc1C3=O)CC2 (centres unmarked) [Compound 000908, N-Deacetyl-N-(anthraquinone-2-carbonyl)thiocolchicine] | 0% | 100% | –
COc1cc2c(c(OC)c1OC)-c1ccc(SC)c(=O)cc1C(NC(=O)COc1c(F)c(F)c(F)c(F)c1F)CC2 (centres unmarked) [Compound 000912, N-Deacetyl-N-(2,3,4,5,6-pentafluorophenoxyacetyl)thiocolchicine] | 0.50% | 100% | –
COc1cc2c(c(OC)c1OC)-c1ccc(SC)c(=O)cc1C(NC(=O)C(C)ON=C1c3cc([N+](=O)[O-])cc([N+](=O)[O-])c3-c3c1cc([N+](=O)[O-])cc3[N+](=O)[O-])CC2 (stereo not drawn) [Compound 000913, N-Deacetyl-N-[(+)-2-(2,4,5,7-tetranitro-9-fluorenylideneaminooxy)propionyl]thiocolchicine] | 1.00% | 90.91% | –
COc1cc2c(c(OC)c1OC)-c1ccc(SC)c(=O)cc1C(NC(=O)C1CCCN1C(=O)OC(C)(C)C)CC2 (centres unmarked) [Compound 000915, N-Deacetyl-N-(1-t-butoxycarbonyl-2-pyrrolidinecarbonyl)thiocolchicine] | 70.12% | – | –
COc1cc2c(c(OC)c1OC)-c1ccc(SC)c(=O)cc1C(NC(=O)Cn1cnnn1)CC2 (centres unmarked) [Compound 000918, N-Deacetyl-N-(1H-tetrazole-1-acetyl)thiocolchicine] | 13.61% | – | –
COc1cc2c(c(OC)c1OC)-c1ccc(SC)c(=O)cc1[C@@H](NC(=O)c1cn(C)c3nc(C)ccc3c1=O)CC2 [Compound 000920, N-Deacetyl-N-(1,7-dimethylnaphthyridin-4-one-3-carboxy)thiocolchicine] | 95.68% | – | –
COc1cc2c(c(OC)c1OC)-c1ccc(SC)c(=O)cc1C(NC(=O)CSc1ccc(Cl)cc1)CC2 (centres unmarked) [Compound 000921, N-Deacetyl-N-[(4-chlorophenylthio)acetyl]thiocoichicine] | 0% | 96.18% | –
COc1cc2c(c(OC)c1OC)-c1ccc(SC)c(=O)cc1C(NC(=O)CSc1ccncc1)CC2 (centres unmarked) [Compound 000922, N-Deacetyl-N-(4-pyridylthioacetyl)thiocolchicine] | 0% | 0% | 100%
COc1cc2c(c(OC)c1OC)-c1ccc(SC)c(=O)cc1C(NC(=O)CCN1C(=O)c3ccccc3C1=O)CC2 (centres unmarked) [Compound 000925, N-Deacetyl-N-(3-phthalimidopropionyl)thiocolchicine] | 0% | 98.67% | –
COc1cc2c(c(OC)c1OC)-c1ccc(SC)c(=O)cc1C(NC(=O)CCC(=O)c1ccc(Br)cc1)CC2 (centres unmarked) [Compound 000926, N-Deacetyl-N-(3-[4-bromobenzoyl]propionyl)thiocolchicine] | 0% | 100% | –
